Reference: US20190105389A1, “ADJUVANT SYSTEM FOR ORAL VACCINE ADMINISTRATION” (Vaxform LLC, priority 2012, published 2019)

How the values were obtained:
[1] = Linkage (adsorption) of CTL receptor agonist to aluminum adjuvant (FIG. 2); format: physicochemical; settings: aluminum oxyhydroxide
Description: However, monosaccharides can be modified by a chemical group including but not limited to fluoride, phosphate, sulfate, or carbonate group which permits a ligand exchange linkage of the molecule to the aluminum-containing adjuvant. Method for modifying saccharides by addition of fluoride, phosphate, sulfate, or carbonate groups is well known in the art (Cantos, et al. Biochem. J. (1993) 288: 155-160; Carbohydrate Chemistry, Royal Society of Chemistry, Ed. RD Guthrie (1968)). This is illustrated in FIG. 2 utilizing mannose as the CTL receptor agonist and aluminum oxyhydroxide. […] However, addition of a phosphate group at the 1 position of mannose (M1P) results in approximately 100% linkage of the CTL agonist to the aluminum adjuvant.
Another method to the increased avidity of the saccharide for the aluminum adjuvant particle is polymerization. For instance the avidity of the saccharide for the aluminum adjuvant particle may be increased by increasing the size of the saccharide by polymerization to produce a polysaccharide. The increase avidity for the aluminum adjuvant is due to the larger number of interactions of a polysaccharide as compared to a monosaccharide to allow for the stable linkage of the polysaccharide agonist to the aluminum adjuvant particle. […]

[2] = Stability of CTL agonist linkage to aluminum particle on exposure to phosphate (FIG. 3A, 3B); format: physicochemical; settings: exposed to 50 mM phosphate pH 7.4 for 30 minutes in the absence of antigen
Description: It is important to maintain the stability of the CTL agonist linkage to the aluminum particle upon exposure to body fluid following administration. Components of interstitial fluid such as phosphate, citrate, and protein have the potential to remove the linkage of the CTL agonist with aluminum-containing adjuvants. The resulting soluble CTL agonist may adversely impact the immune response. FIG. 3A illustrates that M1P as well as mannan maintain approximately 100% linkage with aluminum oxyhydroxide when exposed to 50 mM phosphate pH 7.4 for 30 minutes in the absence of antigen.

Compound	Linkage of the CTL agonist to the aluminum adjuvant [1]	Linkage with aluminum oxyhydroxide maintained [2]
O=P(O)(O)OC1O[C@H](CO)[C@@H](O)[C@H](O)[C@@H]1O (stereo partly shown) [Formulation M1P, mannose-1-phosphate]	approximately 100%	approximately 100%
mannan	approximately 100%	approximately 100%
